This note sets out measurements from paper PMC12671775 (PLOS Genetics, 2025).

Data set [1] has as its target T1, ChuaHNL (hydroxynitrile lyase, CHUA_005138) (Chamberlinius hualienensis, UniProt A0A0H5BR52).
T1 construct: N-terminal His-tagged, produced in Pichia pastoris
It counts as biochemical.

In data set [2] the test system is O=Cc1ccccc1. The data set can be described thus: purified protein.

Regarding `N#CC(O)c1ccccc1` (racemic) [MAN, (R,S)-mandelonitrile], the Km in data set [1] turned out to be 13.7 ± 2.35 mM. Take “ChuaHNL (hydroxynitrile lyase, CHUA_005138) (Chamberlinius hualienensis)”: in data set [2], the Michaelis-Menten constant (Km) is listed as 4.31 ± 0.771 mM.
